Results published in PMC5859192, “Mechanisms underlying the lack of endogenous processing and CLIP-mediated binding of the invariant chain by HLA-DP^84Gly” (Scientific Reports, 2018).
Changes are numbered by the printed parent chain. Where “and” joins values, the source holds several entries; their conditions need not be identical. Equal values may be shown once. Ends that are not written are not given here.

How the values were obtained:
[1] = target: T1, DP4^84DEAV87 (substitution mutant of DPB1*04:01 with DPA1*01:03) expressed on K562 cells (Homo sapiens, UniProt P04440+P20036, G113D/G114E/M116V/P115A); experiment: cell-based; format: binding
T1 construct: expressed in transfected cells; host or cells: K562 (human erythroleukemic cells without endogenous MHC class II, Ii or HLA-DM), retrovirally transduced, pMX vector
T1 sequence (P20036 29-260): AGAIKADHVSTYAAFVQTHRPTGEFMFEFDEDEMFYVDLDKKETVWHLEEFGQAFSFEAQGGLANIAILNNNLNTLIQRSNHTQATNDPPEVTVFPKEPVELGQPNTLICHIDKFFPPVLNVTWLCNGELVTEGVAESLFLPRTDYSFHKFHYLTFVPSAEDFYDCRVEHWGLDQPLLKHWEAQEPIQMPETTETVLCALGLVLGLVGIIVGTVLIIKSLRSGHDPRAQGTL
T1 sequence (P04440 30-258 G113D/G114E/P115A/M116V): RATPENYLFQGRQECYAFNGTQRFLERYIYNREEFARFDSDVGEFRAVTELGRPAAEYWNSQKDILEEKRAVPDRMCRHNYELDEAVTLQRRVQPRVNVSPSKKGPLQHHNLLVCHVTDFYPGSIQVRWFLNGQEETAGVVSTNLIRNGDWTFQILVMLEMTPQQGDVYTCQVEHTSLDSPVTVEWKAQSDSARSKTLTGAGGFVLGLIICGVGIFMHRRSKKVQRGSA

[2] = target: T2, HLA-DP4 (DPA1*01:03/DPB1*04:01) expressed on K562 cells (Homo sapiens, UniProt P04440+P20036); experiment: cell-based; format: binding
T2 construct: expressed in transfected cells; host or cells: K562 (human erythroleukemic cells without endogenous MHC class II, Ii or HLA-DM), retrovirally transduced, pMX vector
T2 sequence (P20036 29-260): T1 sequence (P20036 29-260)
T2 sequence (P04440 30-258): T1 sequence (P04440 30-258 G113D/G114E/P115A/M116V) with D84G, E85G, A86P, V87M

## KKLLTQHFVQENYLEY [MAGE-A3_243–258, reference compound]
[1]
  IC50: 33.7 µM
[2]
  IC50: 28.7 µM

## LPKPPKPVSKMRMATPLLMQALPM [CLIP]
[1]
  IC50: 6 µM
[2]
  IC50: 12.2 µM and 14.7 µM

## LPKPPKPVSKMRMATPLLMQALPMGALPQ [C-extended CLIP]
[2]
  IC50: 15.3 µM

## NLRMKLPKPPKPVSKMRMATPLLMQALPM [N-extended CLIP]
[2]
  IC50: 29.8 µM
